# Experimental data published in patent publication US20120165310A1, “ETHER DERIVATIVES OF BICYCLIC HETEROARYLS” (NOVARTIS AG, priority 2009, published 2012).
# Biological target: T1, IGF-1R (Homo sapiens, UniProt P08069)
# T1 construct: expressed in transfected cells; host or cells: Hek293 (Hek293-IGF1R)
# Assay: Cellular IGF-1R assay: capture ELISA (MSD) of receptor phosphorylation in Hek293 cells
# Format: cell-based
# Settings: Hek293-IGF1R cells, 1 h pre-incubation, 10 min IGF stimulation, pIGF1R capture ELISA
# Procedure, shortened: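 IC50 from 4-parameter fit of IGF1R phosphorylation, normalised to IGF-stimulated and unstimulated controls, measured by MSD capture ELISA on lysates. Hek293-IGF1R cells in starvation medium got compound 1 h (top 10 μM, 3-fold steps, 0.1% DMSO) before a 10 min pulse of 1.0 ng/μL IGF.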
# T1 sequence (P08069 31-1367): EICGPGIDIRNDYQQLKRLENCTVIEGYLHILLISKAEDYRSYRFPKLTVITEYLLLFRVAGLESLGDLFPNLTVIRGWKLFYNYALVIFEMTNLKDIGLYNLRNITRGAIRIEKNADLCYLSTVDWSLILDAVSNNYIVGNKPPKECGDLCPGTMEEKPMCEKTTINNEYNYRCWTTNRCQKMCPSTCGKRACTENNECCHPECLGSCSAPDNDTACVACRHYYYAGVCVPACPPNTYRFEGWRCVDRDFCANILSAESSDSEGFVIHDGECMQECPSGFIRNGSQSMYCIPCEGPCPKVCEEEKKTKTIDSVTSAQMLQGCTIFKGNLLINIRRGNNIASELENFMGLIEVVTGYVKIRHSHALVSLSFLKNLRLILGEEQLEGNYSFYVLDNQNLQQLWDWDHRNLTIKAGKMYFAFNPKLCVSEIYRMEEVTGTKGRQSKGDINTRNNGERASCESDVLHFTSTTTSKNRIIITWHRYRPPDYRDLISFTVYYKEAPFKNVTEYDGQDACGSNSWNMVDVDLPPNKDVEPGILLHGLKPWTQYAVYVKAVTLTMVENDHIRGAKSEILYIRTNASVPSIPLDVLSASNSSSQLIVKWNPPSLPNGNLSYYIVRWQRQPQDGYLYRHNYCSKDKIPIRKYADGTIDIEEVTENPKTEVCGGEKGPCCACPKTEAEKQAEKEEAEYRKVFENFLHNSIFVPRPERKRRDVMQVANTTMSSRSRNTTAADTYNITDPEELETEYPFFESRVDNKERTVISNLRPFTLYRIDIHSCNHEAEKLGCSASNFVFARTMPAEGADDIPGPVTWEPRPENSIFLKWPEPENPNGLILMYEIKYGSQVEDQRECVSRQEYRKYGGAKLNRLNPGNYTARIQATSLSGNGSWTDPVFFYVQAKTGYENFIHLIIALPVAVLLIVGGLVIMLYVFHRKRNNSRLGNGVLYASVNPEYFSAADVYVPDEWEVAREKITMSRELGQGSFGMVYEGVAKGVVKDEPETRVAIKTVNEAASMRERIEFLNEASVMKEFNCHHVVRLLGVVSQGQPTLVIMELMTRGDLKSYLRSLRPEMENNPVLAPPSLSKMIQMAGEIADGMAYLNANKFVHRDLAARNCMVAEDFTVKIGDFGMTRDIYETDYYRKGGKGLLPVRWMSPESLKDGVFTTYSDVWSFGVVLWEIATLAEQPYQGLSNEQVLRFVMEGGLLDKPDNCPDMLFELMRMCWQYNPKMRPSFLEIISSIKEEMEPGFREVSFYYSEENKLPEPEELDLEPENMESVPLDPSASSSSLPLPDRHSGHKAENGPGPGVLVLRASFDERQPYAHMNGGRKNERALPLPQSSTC
row,SMILES,IC50 [nM]
1,"CN1CCC(N2CCC(n3cc(-c4cccc(OCC5CCC(C)(C)O5)c4)c4c(N)ncnc43)CC2)CC1 (stereo not drawn) [Example 60, 5-[3-(5,5-dimethyl-tetrahydro-furan-2-ylmethoxy)-phenyl]-7-(1′-methyl-[1,4′]bipiperidinyl-4-yl)-7H-pyrrolo[2,3-d]pyrimidin-4-ylamine]",339
2,"[2H]C1([2H])C([2H])([2H])C2(COc3cccc(-c4cn([C@H]5C[C@@H](CN6CCS(=O)(=O)CC6)C5)c5ncnc(N)c45)c3)OC1([2H])C([2H])([2H])C2([2H])[2H] [Example 166, d9-7-[cis-3-(1,1-dioxo-1-thiomorpholin-4-ylmethyl)-cyclobutyl]-5-[3-(7-oxa-bicyclo[2.2.1]hept-1-ylmethoxy)-phenyl]-7H-pyrrolo[2,3-d]pyrimidin-4-ylamine]",16
3,"Nc1ncnc2c1c(-c1cccc(OCC3CCCCO3)c1)cn2[C@H]1C[C@@H](CN2CCC2)C1 (mixture of isomers) [Example 1, (rac)-cis-7-(3-azetidin-1-ylmethyl-cyclobutyl)-5-[3-(tetrahydro-pyran-2-ylmethoxy)-phenyl]-7H-pyrrolo[2,3-d]pyrimidin-4-ylamine]",119 to 139
4,"Nc1ncnc2c1c(-c1cccc(OCC34CCC(CC3)O4)c1)cn2C1CC(CN2CCC[C@H]2CO)C1 (stereo partly drawn) [Example 25, [(S)-1-(3-{4-amino-5-[3-(7-oxa-bicyclo[2.2.1]hept-1-ylmethoxy)-phenyl]-pyrrolo[2,3-d]pyrimidin-7-yl}-cyclobutylmethyl)-pyrrolidin-2-yl]-methanol]",4 to 14
5,"Nc1ncnc2c1c(-c1cccc(OCC34CCC(CC3)O4)c1)cn2[C@@H]1CCN(C2CS(=O)(=O)C2)C1 [Example 225, 7-[(R)-1-(1,1-dioxo-thietan-3-yl)-pyrrolidin-3-yl]-5-[3-(7-oxa-bicyclo[2.2.1]hept-1-ylmethoxy)-phenyl]-7H-pyrrolo[2,3-d]pyrimidin-4-ylamine]",319
6,"NC(=O)[C@@H]1CCCN1C[C@H]1C[C@@H](n2cc(-c3cccc(OC[C@H]4CCCCO4)c3)c3c(N)ncnc32)C1 [Example 43, (S)-1-[3-(4-amino-5-{3-[(R)-1-(tetrahydro-pyran-2-yl)methoxy]-phenyl}-pyrrolo[2,3-d]pyrimidin-7-yl)-cyclobutylmethyl]-pyrrolidine-2-carboxylic acid amide]",4 to 22
7,"Nc1ncnc2c1c(-c1cccc(OCC34CCC(CC3)O4)c1)cn2C1CN(C2CS(=O)(=O)C2)C1 [Example 224, 7-[1-(1,1-dioxo-thietan-3-yl)-azetidin-3-yl]-5-[3-(7-oxa-bicyclo[2.2.1]hept-1-ylmethoxy)-phenyl]-7H-pyrrolo[2,3-d]pyrimidin-4-ylamine]",518
8,"NC(=O)[C@@H]1CCCN1C[C@H]1C[C@@H](n2cc(-c3cccc(OCC4CCCCO4)c3)c3c(N)ncnc32)C1 (stereo partly drawn) [Example 42, (S)-1-(cis-3-{4-amino-5-[3-(tetrahydro-pyran-2-ylmethoxy)-phenyl]-pyrrolo[2,3-d]pyrimidin-7-yl}-cyclobutylmethyl)-pyrrolidine-2-carboxylic acid amide]",26 to 39
9,"CN1CCN([C@H]2CC[C@@H](n3cc(-c4cccc(OCC56CCC(CC5)O6)c4)c4c(N)ncnc43)CC2)CC1 [Example 109, 5-(3-(7-oxabicyclo[2.2.1]heptan-1-ylmethoxy)phenyl)-7-((1S,4S)-4-(4-methylpiperazin-1-yl)cyclohexyl)-7H-pyrrolo[2,3-d]pyrimidin-4-amine]",101
10,"Nc1ncnc2c1c(-c1cccc(OCC3CCCCO3)c1)cn2[C@H]1C[C@@H](CN2CCC(F)CC2)C1 (relative stereo) [Example 32, 7-[cis-3-(4-fluoro-piperidin-1-ylmethyl)-cyclobutyl]-5-[3-(tetrahydro-pyran-2-ylmethoxy)-phenyl]-7H-pyrrolo[2,3-d]pyrimidin-4-ylamine]",309
11,"CC1(C)CCC(COc2cccc(-c3cn([C@H]4C[C@@H](CN5CCC[C@@H]5C(N)=O)C4)c4ncnc(N)c34)c2)O1 (stereo partly drawn) [Example 51, (R)-1-(cis-3-{4-amino-5-[3-(5,5-dimethyl-tetrahydro-furan-2-ylmethoxy)-phenyl]-pyrrolo[2,3-d]pyrimidin-7-yl}-cyclobutylmethyl)-pyrrolidine-2-carboxylic acid amide]",53
12,"CC(C)C(=O)N[C@H]1CC[C@@H](n2cc(-c3cccc(OCC45CCC(CC4)O5)c3)c3c(N)ncnc32)CC1 [Example 147, N-((1S,4S)-4-(5-(3-(7-oxabicyclo[2.2.1]heptan-1-ylmethoxy)phenyl)-4-amino-7H-pyrrolo[2,3-d]pyrimidin-7-yl)cyclohexyl)isobutyramide]",231
13,"Nc1ncnc2c1c(-c1cccc(OC[C@@H]3CCCO3)c1)cn2C1CC2(CNC(=O)O2)C1 (stereo partly drawn) [Example 238, 2-(4-Amino-5-{3-[(S)-1-(tetrahydro-furan-2-yl)methoxy]-phenyl}-pyrrolo[2,3-d]pyrimidin-7-yl)-5-oxa-7-aza-spiro[3.4]octan-6-one]",366
14,"CC1(C)CS(=O)(=O)CCN1CC1CCC(n2cc(-c3cccc(OCC45CCC(CC4)O5)c3)c3c(N)ncnc32)CC1 (stereo not drawn) [Example 135, 7-[4-(3,3-Dimethyl-1,1-dioxo-1λ6-thiomorpholin-4-ylmethyl)-cyclohexyl]-5-[3-(7-oxa-bicyclo[2.2.1]hept-1-ylmethoxy)-phenyl]-7H-pyrrolo[2,3-d]pyrimidin-4-ylamine]",456
15,"Nc1ncnc2c1c(-c1cccc(OCC34CCC(CC3)O4)c1)cn2[C@H]1C[C@@H](CN2C(=O)c3ccccc3C2=O)C1 [Example 108, 2-(((1S,3S)-3-(5-(3-(7-oxabicyclo[2.2.1]heptan-1-ylmethoxy)phenyl)-4-amino-7H-pyrrolo[2,3-d]pyrimidin-7-yl)cyclobutyl)methyl)isoindoline-1,3-dione]",327
16,"Nc1ncnc2c1c(-c1cccc(OCC34CCC(CC3)O4)c1)cn2[C@H]1CC[C@H](c2cnco2)CC1 [Example 151, 5-(3-(7-oxabicyclo[2.2.1]heptan-1-ylmethoxy)phenyl)-7-((1R,4S)-4-(oxazol-5-yl)cyclohexyl)-7H-pyrrolo[2,3-d]pyrimidin-4-a mine]",271
17,"Nc1ncnc2c1c(-c1cccc(OCC3CCCO3)c1)cn2[C@H]1C[C@@H](CN2CCS(=O)(=O)CC2)C1 (relative stereo) [Example 88, 7-[cis-3-(1,1-Dioxothiomorpholin-4-ylmethyl)-cyclobutyl]-5-[3-(tetrahydro-furan-2-ylmethoxy)-phenyl]-7H-pyrrolo[2,3-d]pyrimidin-4-ylamine]",234
18,"CC1(C)CCC(COc2cccc(-c3cn([C@H]4C[C@@H](CN5CCS(=O)(=O)CC5)C4)c4ncnc(N)c34)c2)O1 (single isomer, unassigned) [Example 67]",15
19,"Nc1ncnc2c1c(-c1cccc(OCC34CCC(CC3)O4)c1)cn2[C@H]1C[C@H](O)C1 [Example 222, (E)-3-{4-amino-5-[3-(7-oxa-bicyclo[2.2.1]hept-1-ylmethoxy)-phenyl]-pyrrolo[2,3-d]pyrimidin-7-yl}-cyclobutanol]",352
20,"Nc1ncnc2c1c(-c1cccc(OCC34CCC(CC3)O4)c1)cn2[C@H]1C[C@@H](N2CC(O)C2)C1 (relative stereo) [Example 191, 1-(cis-3-{4-Amino-5-[3-(7-oxa-bicyclo[2.2.1]hept-1-ylmethoxy)-phenyl]-pyrrolo[2,3-d]pyrimidin-7-yl}-cyclobutyl)-azetidin-3-ol]",138
21,"Nc1ncnc2c1c(-c1cccc(OCC34CCC(CC3)O4)c1)cn2C1CCC(N2CCS(=O)(=O)CC2)CC1 (stereo not drawn) [Example 131, 7-[4-(1,1-Dioxo-1λ6-thiomorpholin-4-yl)-cyclohexyl]-5-[3-(7-oxa-bicyclo[2.2.1]hept-1-ylmethoxy)-phenyl]-7H-pyrrolo[2,3-d]pyrimidin-4-ylamine]",108
22,"CN1CCN(C(=O)N[C@H]2CC[C@@H](n3cc(-c4cccc(OCC56CCC(CC5)O6)c4)c4c(N)ncnc43)CC2)CC1 [Example 140, N-((1R,4R)-4-(5-(3-(7-oxabicyclo[2.2.1]heptan-1-ylmethoxy)phenyl)-4-amino-7H-pyrrolo[2,3-d]pyrimidin-7-yl)cyclohexyl)-4-methylpiperazine-1-carboxamide]",473
23,"Nc1ncnc2c1c(-c1cccc(OCC3CCCCO3)c1)cn2[C@H]1C[C@@H](CN2CCC[C@@H]2C(=O)O)C1 (stereo partly drawn) [Example 90, 1-(cis-3-{4-amino-5-[3-(tetrahydro-pyran-2-ylmethoxy)-pheny]-pyrrolo[2,3-d]pyrimidin-7-yl}-cyclobutylmethyl)-pyrrolidine-2-carboxylic acid]",538
24,"Nc1ncnc2c1c(-c1cccc(OCC34CCC(CC3)O4)c1)cn2[C@H]1CC[C@H](N2CC[C@@H](F)C2)CC1 [Example 125, 5-(3-(7-oxabicyclo[2.2.1]heptan-1-ylmethoxy)phenyl)-7-((1R,4S)-4-((R)-3-fluoropyrrolidin-1-yl)cyclohexyl)-7H-pyrrolo[2,3-d]pyrimidin-4-amine]",419
25,"CSC[C@H]1C[C@@H](n2cc(-c3cccc(OC[C@H]4CCCCO4)c3)c3c(N)ncnc32)C1 (relative stereo) [Example 152, 7-(cis-3-methylsuphanylmethyl-cyclobutyl)-5-{3-[(R)-1-(tetrahydro-pyran-2-yl)methoxy]-phenyl}-7H-pyrrolo[2,3-d]pyrimidin-4-ylamine]",281
26,"CC1(C)CCC(COc2cccc(-c3cn([C@H]4CC[C@@H](N5CCOCC5)CC4)c4ncnc(N)c34)c2)O1 (relative stereo) [Example 65, 5-[3-(5,5-dimethyl-tetrahydro-furan-2-ylmethoxy)-phenyl]-7-(cis-4-morpholin-4-yl-cyclohexyl)-7H-pyrrolo[2,3-d]pyrimidin-4-ylamine]",128
27,"CN(C)CC1(O)CC(n2cc(-c3cccc(OCC45CCC(CC4)O5)c3)c3c(N)ncnc32)C1 (stereo not drawn) [Example 235, 3-{4-Amino-5-[3-(7-oxa-bicyclo[2.2.1]hept-1-ylmethoxy)-phenyl]-pyrrolo[2,3-d]pyrimidin-7-yl}-1-dimethylaminomethyl-cyclobutanol]",49
